Experimental data published in US6825230B2, “Spiro and dispiro 1,2,4-trixolane antimalarials” (Medicines for Malaria Venture MMV, priority 2002, dated 2004).
Values after ≈ are worked out from the molar mass of the structure shown. Like-named read-outs stand apart in the source and are kept apart here.

What was measured:
[1] = tested on: chloroquine-resistant K1 strain of P. falciparum; assay: In vitro antimalarial semiautomated microdilution assay ([3H]-hypoxanthine incorporation), K1 strain; type: cell-based, Plasmodium falciparum; conditions: Plasmodium falciparum
In short: (§1)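 Semiautomated microdilution against intraerythrocytic P. falciparum from asynchronous stock cultures, with growth tracked by [3H]-hypoxanthine incorporation. IC50 values were estimated by Logit regression analysis.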

[2] = tested on: ANKA strain of P. berghei; assay: Single dose STI in vivo screen in infected mice; design: species or system Plasmodium berghei; conditions: for Survival (days) 10 mg/kg po: single 10 mg/kg po in 3% ethanol and 7% Tween 80; for Survival (days) 10 mg/kg po / Survival (days) 10 mg/kg SSV po / Survival (days) 10 mg/kg sc: untreated 6-7 days; for Survival (days) 10 mg/kg SSV po: single 10 mg/kg po in SSV; for Survival (days) 10 mg/kg sc: single 10 mg/kg sc in 3% ethanol and 7% Tween 80
[3] = tested on: chloroquine-sensitive NF54 strain of P. falciparum; assay: In vitro antimalarial semiautomated microdilution assay ([3H]-hypoxanthine incorporation), NF54 strain; type: cell-based, Plasmodium falciparum; conditions: Plasmodium falciparum
In short: as §1

[4] = chloroquine-resistant K1 strain, 72 h incubation, read-out: IC50 (ng/ml) K1
[5] = single 10 mg/kg po in 3% ethanol and 7% Tween 80 on day 1 post-infection, percent reduction in parasitemia on day 3
[6] = single 10 mg/kg po in standard suspending vehicle (SSV) on day 1 post-infection, percent reduction in parasitemia on day 3
[7] = single 10 mg/kg sc in 3% ethanol and 7% Tween 80 on day 1 post-infection, percent reduction in parasitemia on day 3
[8] = chloroquine-sensitive NF54 strain, 72 h incubation, read-out: IC50 (ng/ml) NF54
[9] = K1, 72 h, read-out: IC50 (ng/ml) K1, chloroquine-resistant K1 strain, 72 h incubation
[10] = NF54, 72 h, read-out: IC50 (ng/ml) NF54, chloroquine-sensitive NF54 strain, 72 h incubation

SMILES | IC50 [1, 4] | Survival (days) 10 mg/kg po [2] | Activity (%) 10 mg/kg po [2, 5] | Survival (days) 10 mg/kg SSV po [2] | Activity (%) 10 mg/kg SSV po [2, 6] | Survival (days) 10 mg/kg sc [2] | Activity (%) 10 mg/kg sc [2, 7] | IC50 [3, 8] | Activity (%) 10 mg/kg SSV po ([2]; po, 10 mg/kg) | Activity (%) 10 mg/kg po ([2]; po, 10 mg/kg) | Activity (%) 10 mg/kg sc ([2]; sc, 10 mg/kg) | IC50 [1, 9] | IC50 [3, 10]
CCOC(=O)c1cccc([C@H]2CC[C@]3(CC2)OOC2(O3)C3CC4CC(C3)CC2C4)c1 (some centres unmarked) [OZ208] | 6 ng/mL (≈ 14.5 nM) | 6.3 days | 0% | 6.7 days | 29% | 5.7 days | 10% | 6.5 ng/mL (≈ 15.8 nM) |  |  |  |  | 
O=S(=O)(C[C@H]1CC[C@]2(CC1)OOC1(O2)C2CC3CC(C2)CC1C3)c1ccccc1 (some centres unmarked) [OZ210] | 1.4 ng/mL (≈ 3.34 nM) | 9.3 days | 99.23% | 8.0 days | 77% | 10.3 days | 99.94% | 1.6 ng/mL (≈ 3.82 nM) |  |  |  |  | 
c1cnn(C[C@H]2CC[C@]3(CC2)OOC2(O3)C3CC4CC(C3)CC2C4)c1 (some centres unmarked) [OZ211] | 1 ng/mL (≈ 2.9 nM) | 8.0 days | 82% | 7.3 days | 78% | 8.7 days | 99.90% | 1.2 ng/mL (≈ 3.48 nM) |  |  |  |  | 
O=C1c2ccccc2S(=O)(=O)N1C[C@H]1CC[C@]2(CC1)OOC1(O2)C2CC3CC(C2)CC1C3 (some centres unmarked) [OZ212] | 2.7 ng/mL (≈ 5.88 nM) | 6.7 days | 66% | 6.7 days | 25% | 8.0 days | 59% | 2.9 ng/mL (≈ 6.31 nM) |  |  |  |  | 
CONC(=O)C[C@H]1CC[C@]2(CC1)OOC1(O2)C2CC3CC(C2)CC1C3 (some centres unmarked) [OZ213] | 2.3 ng/mL (≈ 6.54 nM) | 8.0/8.0/8.0 days | 83% | 8.0/8.0/8.0 days | 74% | 8.0/8.0/8.0 days | 85% | 2.8 ng/mL (≈ 7.97 nM) |  |  |  |  | 
O=C(O)c1ccc(C[C@H]2CC[C@]3(CC2)OOC2(O3)C3CC4CC(C3)CC2C4)cc1 (some centres unmarked) [OZ214] | > 10 ng/mL | 6.3 days | 44% | 7.3 days | 54% | 7.7 days | 65% | > 10 ng/mL |  |  |  |  | 
O=C1c2ccccc2C(=O)N1CC[C@H]1CC[C@]2(CC1)OOC1(O2)C2CC3CC(C2)CC1C3 (some centres unmarked) [OZ215] | 6.4 ng/mL (≈ 14.6 nM) | 9.7 days |  | 6.3 days |  | 7.0 days |  | 7.3 ng/mL (≈ 16.7 nM) | 25% | 96% | 39% |  | 
c1cc(CN2CCC3(CC2)OOC2(O3)C3CC4CC(C3)CC2C4)ccn1 (centres unmarked) [OZ216, Adamantane-2-spiro-3′-8′-(4′-pyridinylmethyl)-1′,2′,4′-trioxa-8′-azaspiro[4.5]decane] | 0.4 ng/mL (≈ 1.12 nM) | 6.3 days | 62% | 7.7 days | 69% | 11.0 days | 99.02% | 0.67 ng/mL (≈ 1.88 nM) |  |  |  |  | 
O=C(C[C@H]1CC[C@]2(CC1)OOC1(O2)C2CC3CC(C2)CC1C3)Nc1nccs1 (some centres unmarked) [OZ217] | 2 ng/mL (≈ 4.94 nM) | 7.0 days | 67% | 6.0 days | 8% | 8.0 days | 98% | 2 ng/mL (≈ 4.94 nM) |  |  |  |  | 
O=C(C[C@H]1CC[C@]2(CC1)OOC1(O2)C2CC3CC(C2)CC1C3)N1CCCCC1 (some centres unmarked) [OZ218] | 2 ng/mL (≈ 5.13 nM) | 10.0 days | 98% | 14.3 days | 99.30% | 9.0 days | 99.68% | 3 ng/mL (≈ 7.7 nM) |  |  |  |  | 
c1ccc(CN2CCC3(CC2)OOC2(O3)C3CC4CC(C3)CC2C4)cc1 (centres unmarked) [OZ220, Adamantane-2-spiro-3′-8′-benzyl-1′,2′,4′-trioxa-8′-azaspiro[4.5]decane] | 6.9 ng/mL (≈ 19.4 nM) | 6.0 days | 40% | 5.3 days | 0% | 10.0 days | 99.95% | 4.9 ng/mL (≈ 13.8 nM) |  |  |  |  | 
NC(=O)N[C@H]1CC[C@]2(CC1)OOC1(O2)C2CC3CC(C2)CC1C3 (some centres unmarked) [OZ221] | > 10 ng/mL | 6.3 days | 80% | 7.0 days | 87% | 8.0 days | 97% | > 10 ng/mL |  |  |  |  | 
CC(C)(C)NC(=O)N[C@H]1CC[C@]2(CC1)OOC1(O2)C2CC3CC(C2)CC1C3 (some centres unmarked) [OZ222] | 3.9 ng/mL (≈ 10.3 nM) | 7.7 days | 87% | 7.0 days | 75% | 10.0 days | 99.76% | 6.3 ng/mL (≈ 16.6 nM) |  |  |  |  | 
COC(=O)c1cncn1C[C@H]1CC[C@]2(CC1)OOC1(O2)C2CC3CC(C2)CC1C3 (some centres unmarked) [OZ223] | 4 ng/mL (≈ 9.94 nM) | 7.3 days | 89% | 6.3 days | 79% | 12.0 days | 99.57% | > 10 ng/mL |  |  |  |  | 
COC(=O)c1cn(C[C@H]2CC[C@]3(CC2)OOC2(O3)C3CC4CC(C3)CC2C4)cn1 (some centres unmarked) [OZ224] | 2 ng/mL (≈ 4.97 nM) | 6.0 days | 0% | 5.7 days | 5% | 5.7 days | 20% | 3 ng/mL (≈ 7.45 nM) |  |  |  |  | 
O=C(O)c1cn(C[C@H]2CC[C@]3(CC2)OOC2(O3)C3CC4CC(C3)CC2C4)cn1 (some centres unmarked) [OZ225] | 7.3 ng/mL (≈ 18.8 nM) | 5.7 days | 0% | 5.7 days | 0% | 6.3 days | 17% | > 10 ng/mL |  |  |  |  | 
[N-]=[N+]=NCC[C@H]1CC[C@]2(CC1)OOC1(O2)C2CC3CC(C2)CC1C3 (some centres unmarked) [OZ228] |  | 10.3 days | 99.94% | 6.0 days | 28% | 14.0 days | 99.94% |  |  |  |  | 2 ng/mL (≈ 6 nM) | 2.1 ng/mL (≈ 6.3 nM)
O=C(NC[C@H]1CC[C@]2(CC1)OOC1(O2)C2CC3CC(C2)CC1C3)c1ccccc1C(=O)NC[C@H]1CC[C@]2(CC1)OOC1(O2)C2CC3CC(C2)CC1C3 (stereo partly drawn) [OZ230, N,N′-Bis[cis-[adamantane-2-spiro-3′-1′,2′,4′-trioxaspiro[4.5]dec-8′-yl]methyl]-1,2-benzenedicarboxamide] |  | 5.3 days | 0/0/0% | 5.7 days | 0/0/0% | 5.7 days | 0/0/0% |  |  |  |  | 3.9 ng/mL (≈ 5.44 nM) | 3.6 ng/mL (≈ 5.02 nM)
O=C(O)c1cncn1C[C@H]1CC[C@]2(CC1)OOC1(O2)C2CC3CC(C2)CC1C3 (stereo partly drawn) [OZ231, cis-Adamantane-2-spiro-3′-8′-(5′-carboxy-1′H-imidazol-1′-ylmethyl)-1′,2′,4′-30 trioxaspiro[4.5]decane] |  | 5.3 days | 0/0/0% | 5.7 days | 0/0/0% | 6.0 days | 0/0/0% |  |  |  |  | > 10 ng/mL | > 10 ng/mL
CN(C)C[C@H]1CC[C@]2(CC1)OOC1(O2)C2CC3CC(C2)CC1C3 (some centres unmarked) [OZ232] |  | 8.0 days | 76% | 7.3 days | 74% | 8.7 days | 99.94% |  |  |  |  | 0.3 ng/mL (≈ 0.933 nM) | 0.5 ng/mL (≈ 1.56 nM)
COC(=O)c1ncnn1C[C@H]1CC[C@]2(CC1)OOC1(O2)C2CC3CC(C2)CC1C3 (some centres unmarked) [OZ233] |  | 7.0 days | 69% | 7.7 days | 76% | 8.3 days | 99.66% |  |  |  |  | 1.7 ng/mL (≈ 4.21 nM) | 1.9 ng/mL (≈ 4.71 nM)
COC(=O)c1ncn(C[C@H]2CC[C@]3(CC2)OOC2(O3)C3CC4CC(C3)CC2C4)n1 (some centres unmarked) [OZ234] |  | 6.0 days | 12% | 6.0 days | 0% | 6.3 days | 0% |  |  |  |  | 3 ng/mL (≈ 7.44 nM) | 3.6 ng/mL (≈ 8.92 nM)
